Measured values taken from patent publication US9150598B2, “Masking apertures enabling automation and solution exchange in sessile bilayers” (The Regents of the University of California, priority 2011, dated 2015).

How the values were obtained:
TRPM8 [1] = biological target: T1, TRPM8 (Rattus norvegicus, UniProt Q8R455); experiment: Ensemble TRPM8 currents in droplet lipid bilayer with solution perfusion (drug potency); assay type: biochemical; settings: +100 mV
T1 construct: 6x histidine tag (N); made in house; host or cells: E. coli
T1 sequence (Q8R455 whole entry, the tested form may be a part): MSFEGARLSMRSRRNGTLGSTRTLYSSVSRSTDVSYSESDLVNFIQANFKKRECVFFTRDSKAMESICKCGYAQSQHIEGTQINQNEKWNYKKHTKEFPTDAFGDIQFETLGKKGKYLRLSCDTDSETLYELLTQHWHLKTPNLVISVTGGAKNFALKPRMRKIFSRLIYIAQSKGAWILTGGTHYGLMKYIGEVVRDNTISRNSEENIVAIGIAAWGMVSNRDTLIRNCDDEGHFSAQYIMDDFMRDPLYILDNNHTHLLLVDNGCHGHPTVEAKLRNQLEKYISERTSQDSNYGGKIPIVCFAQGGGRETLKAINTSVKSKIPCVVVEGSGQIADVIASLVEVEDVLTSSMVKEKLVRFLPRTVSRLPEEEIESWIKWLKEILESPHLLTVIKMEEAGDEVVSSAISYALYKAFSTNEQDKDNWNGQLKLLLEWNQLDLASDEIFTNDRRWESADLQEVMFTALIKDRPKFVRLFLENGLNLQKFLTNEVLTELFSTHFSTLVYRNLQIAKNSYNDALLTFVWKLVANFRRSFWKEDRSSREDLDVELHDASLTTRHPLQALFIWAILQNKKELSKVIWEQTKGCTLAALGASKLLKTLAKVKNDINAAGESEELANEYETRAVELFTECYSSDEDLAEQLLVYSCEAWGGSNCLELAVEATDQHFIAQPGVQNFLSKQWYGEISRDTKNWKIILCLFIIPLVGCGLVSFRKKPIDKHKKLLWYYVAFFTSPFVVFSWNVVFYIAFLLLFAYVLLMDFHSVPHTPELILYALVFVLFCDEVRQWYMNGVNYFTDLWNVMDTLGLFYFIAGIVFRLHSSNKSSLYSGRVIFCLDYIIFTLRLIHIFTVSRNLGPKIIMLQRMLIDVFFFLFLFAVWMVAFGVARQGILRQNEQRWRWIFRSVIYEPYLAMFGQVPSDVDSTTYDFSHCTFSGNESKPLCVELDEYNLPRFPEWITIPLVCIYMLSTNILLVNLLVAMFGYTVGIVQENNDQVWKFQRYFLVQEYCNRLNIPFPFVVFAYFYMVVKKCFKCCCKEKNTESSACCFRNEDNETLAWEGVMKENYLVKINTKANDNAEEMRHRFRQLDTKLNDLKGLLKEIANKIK
Experimental: (§1) The apparatus was prepared for use by filling the outer wells and lower channel with 200 μL of an aqueous solution containing liposomes (described below) (FIG. 1B). The 200 μm aperture in the hydrophobic Delrin film is sufficiently small to prevent flow of aqueous solution through it. 80 μL of n-decane was then added to the center well, contacting the lower aqueous solution through the Delrin aperture (FIG. 1B). […] The lower aqueous solution could be exchanged by adding and withdrawing fluids through the outer wells (FIG. 1B).
2 μL of this solution was used for the sessile droplet and 200 μL of this solution (or a similarly prepared liposome solution not containing TRPM8) was added to the lower aqueous channel.
A Ag/AgCl counter electrode placed in the one of the outer wells and the Ag/AgCl pin electrode were connected to an Axopatch 200B amplifier (Axon Instruments), which was used to apply a transmembrane potential and measure the resultant ionic current (FIG. 1B). […] Bilayer capacitance was measured throughout to ensure that changes in measured current were due to changes in channel conductance and not changes in bilayer size or stability. […]
The resultant current at each concentration was measured over 10 minutes before the concentration was increased (FIG. 7). […]
The average current at each concentration was determined and normalized by the maximum value measured. […]

[2] = Control: DPhPC droplet bilayers made without hERG membrane preparations; settings: identical amounts of drug added
TRPM8 [3] = biological target: T1, TRPM8; experiment: Single-channel TRPM8 recordings in droplet lipid bilayer (open probability); assay type: biochemical; settings: 20° C., +100 mV, 2.5 μM PI(4,5)P2, n=9
Experimental: as §1
A TRPM8 construct with 6× histidine tag at the amino terminus was transformed into E. coli, expressed, and purified. […] The resulting proteoliposomes were aliquoted and stored at −80° C. […]
A Ag/AgCl counter electrode placed in the one of the outer wells and the Ag/AgCl pin electrode were connected to an Axopatch 200B amplifier (Axon Instruments), which was used to apply a transmembrane potential and measure the resultant ionic current (FIG. 1B). […] Bilayer capacitance was measured throughout to ensure that changes in measured current were due to changes in channel conductance and not changes in bilayer size or stability.
Temperature was measured using a 10 kΩ n-type thermistor (Newark) placed in the solution of one of the outer wells. […]
Ensembles of TRPM8 were measured using a 1:1000 protein:lipid ratio.

TRPM8 [4] = biological target: T1, TRPM8; experiment: Ensemble TRPM8 currents while varying PI(4,5)P2 concentration; assay type: biochemical; settings: 250 μM menthol, +100 mV, 20° C.
Experimental: Data were filtered at 200 Hz. Measurements began in the absence of PI(4,5)P2. After ten minutes at each concentration, the concentration of PI(4,5)P2 was then increased by 0.8 μM with the addition of […] PI(4,5)P2 stock solution (100 μM) to the 200 μL lower aqueous solution. With no PI(4,5)P2 in the measurement solution, there was no observed channel activity. As the concentration of PI(4,5)P2 increased, frequency of channel opening increased. […] Throughout experiments, temperature was kept constant at 20° C.
During measurement, solutions were added to the fluid inlet well and withdrawn from the fluid outlet well (FIG. 6D).
Bilayers were formed with this chip at very high yield and with highly consistent diameters (163±14 μm (n=55), measured capacitively).^17 Following bilayer formation, a potential of 0 mV was applied followed by voltage steps from −100 mV to +100 mV, in 20 mV increments for 10 seconds each, and the resulting current measured. We measured no TRPM8 currents in the absence of the signaling phospholipid PI(4,5)P2, in agreement with previous work (B. Liu and F. Qin, J. Neurosci., 2005, 25, 1674-1681; T. Rohács, C. M. B. Lopes, I. Michailidis and D. E. Logothetis, Nat. Neurosci., 2005, 8, 626-634). […] With PI(4,5)P2, constant TRPM8 currents were almost always observed immediately upon bilayer formation.

## NCCOB(c1ccccc1)c1ccccc1 [2-APB, 2-aminoethoxydiphenyl borate]
TRPM8 [1]; read-out: IC50 of 2-APB on menthol-evoked TRPM8 currents, in 500 μM menthol, protein:lipid 1:1000, n=3
  IC50: 4.9 µM

## COc1ccc(CCN2CCC(Nc3nc4ccccc4n3Cc3ccc(F)cc3)CC2)cc1 [astemizole]
[2]
  Effect on bilayers without hERG: no change in membrane conductance observed

## CC1CCC(C(C)C)C(O)C1 (stereo not drawn) [menthol]
TRPM8 [1]; protein:lipid 1:1000, 2.5 μM PI(4,5)P2, n=3
  EC50: 112 µM
TRPM8 [3]; 50 μM menthol
  Popen (open probability) of TRPM8: 0.639±0.029
TRPM8 [3]; 500 μM menthol
  Popen (open probability) of TRPM8: 0.967±0.013

## phosphatidylinositol-4,5-bisphosphate [PI(4,5)P2]
TRPM8 [4]
  PI(4,5)P2 concentration at which maximum current did not increase further: 2.4 µM
